{
  "source": "paper PMC10615177",
  "about": "(ACS infectious diseases, 2023)",
  "key": {"[1]": {"target": "M. tuberculosis MmpL3 (MtMmpL3) (Mycobacterium tuberculosis, UniProt P9WJV5)", "sequence (P9WJV5 whole entry)": "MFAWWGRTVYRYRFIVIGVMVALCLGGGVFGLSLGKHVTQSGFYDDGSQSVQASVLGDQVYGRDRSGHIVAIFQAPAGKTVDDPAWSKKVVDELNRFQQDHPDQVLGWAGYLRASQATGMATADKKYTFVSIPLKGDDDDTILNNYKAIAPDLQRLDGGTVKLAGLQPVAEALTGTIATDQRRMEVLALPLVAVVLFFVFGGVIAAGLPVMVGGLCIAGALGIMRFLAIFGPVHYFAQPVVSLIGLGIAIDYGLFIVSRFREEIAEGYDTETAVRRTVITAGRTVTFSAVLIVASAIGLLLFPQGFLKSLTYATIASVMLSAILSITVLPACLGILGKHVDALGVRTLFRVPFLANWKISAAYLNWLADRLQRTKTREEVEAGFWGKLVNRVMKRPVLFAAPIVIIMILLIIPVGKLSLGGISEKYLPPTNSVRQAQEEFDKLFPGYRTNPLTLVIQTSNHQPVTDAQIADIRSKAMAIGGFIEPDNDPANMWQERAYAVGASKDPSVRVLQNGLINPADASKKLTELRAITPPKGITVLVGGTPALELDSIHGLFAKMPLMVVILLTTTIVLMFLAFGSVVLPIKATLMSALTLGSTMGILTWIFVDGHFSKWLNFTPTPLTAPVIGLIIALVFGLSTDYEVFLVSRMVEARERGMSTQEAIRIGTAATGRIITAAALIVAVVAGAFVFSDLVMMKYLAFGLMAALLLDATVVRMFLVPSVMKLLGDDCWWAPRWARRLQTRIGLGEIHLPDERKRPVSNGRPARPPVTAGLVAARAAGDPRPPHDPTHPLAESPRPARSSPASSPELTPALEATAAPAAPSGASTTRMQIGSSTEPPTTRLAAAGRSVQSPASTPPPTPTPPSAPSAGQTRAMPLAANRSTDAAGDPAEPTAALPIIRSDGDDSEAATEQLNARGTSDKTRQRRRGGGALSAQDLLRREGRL", "assay": "Surface plasmon resonance binding to MmpL3", "settings": "two-state model"}, "M. tuberculosis HN878": {"system": "M. tuberculosis HN878", "assay": "M. tuberculosis HN878 growth inhibition", "format": "cell-based, Mycobacterium tuberculosis", "settings": "Mycobacterium tuberculosis"}, "[2]": {"system": "T. brucei bloodstream forms", "assay": "T. brucei bloodstream form growth inhibition", "format": "cell-based, Trypanosoma brucei", "settings": "Trypanosoma brucei, read-out: T. brucei IC50"}, "[3]": {"settings": "dog, in vivo; cited from earlier work"}, "Bacillus subtilis": {"system": "Bacillus subtilis", "assay": "B. subtilis growth inhibition", "format": "cell-based", "settings": "Bacillus subtilis, read-out: Bs IC50"}, "M. tuberculosis Erdman": {"system": "M. tuberculosis Erdman", "assay": "M. tuberculosis Erdman growth inhibition", "format": "cell-based, Mycobacterium tuberculosis", "settings": "Mycobacterium tuberculosis, ERDMAN, read-out: Mtb Erdman MIC"}, "[4]": {"assay": "DSC of DMPC bilayers with inhibitor", "format": "physicochemical"}, "in vitro [5]": {"assay": "in vitro", "settings": "human"}, "M. tuberculosis H37Rv": {"system": "M. tuberculosis H37Rv", "assay": "M. tuberculosis H37Rv growth inhibition", "format": "cell-based, Mycobacterium tuberculosis", "settings": "Mycobacterium tuberculosis, H37RV, read-out: Mtb H37Rv MIC"}, "[6]": {"system": "Plasmodium falciparum asexual blood stages", "assay": "P. falciparum asexual blood stage", "format": "cell-based"}, "in vitro [7]": {"assay": "in vitro", "settings": "human", "remark": "listed apart in the source"}, "E. coli": {"system": "E. coli", "assay": "E. coli growth inhibition", "format": "cell-based, Escherichia coli", "settings": "Escherichia coli, read-out: Ec IC50"}, "[8]": {"system": "M. abscessus rough variant", "assay": "microbe, parasite or virus in culture", "format": "cell-based", "settings": "Mycobacteroides abscessus, read-out: Ma(R) MIC"}, "[9]": {"system": "T. cruzi Dm28c intracellular amastigotes", "assay": "T. cruzi intracellular amastigote inhibition", "format": "cell-based, Trypanosoma cruzi", "settings": "Trypanosoma cruzi, U2OS, read-out: T. cruzi IC50 (PAR)"}, "[10]": {"settings": "[14C-SQ109], mice; cited from earlier work"}, "[11]": {"system": "M. abscessus strain PIPD1^R1 (A309P mutation in MmpL3)"}, "[12]": {"settings": "rat, in vivo; cited from earlier work"}, "[13]": {"system": "L. donovani promastigotes", "assay": "L. donovani promastigote growth inhibition", "format": "cell-based, Leishmania donovani", "settings": "Leishmania donovani, read-out: L. donovani IC50"}, "[14]": {"assay": "DSC of DSPG bilayers with inhibitor", "format": "physicochemical"}, "[15]": {"system": "M. abscessus smooth variant", "assay": "microbe, parasite or virus in culture", "format": "cell-based", "settings": "Mycobacteroides abscessus"}, "[16]": {"system": "L. mexicana promastigotes", "assay": "L. mexicana promastigote growth inhibition", "format": "cell-based, Leishmania mexicana"}, "M. smegmatis": {"system": "M. smegmatis", "assay": "M. smegmatis cell growth inhibition", "format": "cell-based, Mycobacterium smegmatis", "settings": "Mycolicibacterium smegmatis, read-out: Ms IC50, M. smegmatis"}, "[17]": {"system": "T. cruzi Dm28c epimastigotes", "assay": "T. cruzi epimastigote growth inhibition", "format": "cell-based, Trypanosoma cruzi", "settings": "Trypanosoma cruzi, read-out: T. cruzi IC50 (EPI)"}, "[18]": {"settings": "10 wt % inhibitor, PBS pH 7.4, heating"}},
  "note": "Where two headings read alike, the source gives them in different places.",
  "data": [
    {"smiles": "CC(C)=CCC/C(C)=C/CNCCNC1C2CC3CC(C2)CC1C3", "note": "(centres unmarked) [Compound 8a, N-geranyl-N΄-(2-adamantyl)ethane-1,2-diamine, reference compound]", "values": [
      {"measurement": "ka1", "setting": "[1]", "result": 429.8, "unit": "M⁻¹ s⁻¹"},
      {"measurement": "ka2", "setting": "[1]", "result": 0.005315, "unit": "s⁻¹"},
      {"measurement": "kd1", "setting": "[1]", "result": 1.098, "unit": "s⁻¹"},
      {"measurement": "kd2", "setting": "[1]", "result": 0.02222, "unit": "s⁻¹"},
      {"measurement": "MIC", "setting": "M. tuberculosis HN878; HN878, read-out: MIC against M. tuberculosis", "result": "0.3 to 1", "unit": "µM"},
      {"measurement": "IC50", "setting": "M. tuberculosis HN878; HN878, read-out: Mtb HN878 IC50, dose-response curves", "result": "270 ± 20", "unit": "nM"},
      {"measurement": "MIC", "setting": "M. tuberculosis HN878; HN878, read-out: Mtb HN878 MIC", "result": 0.4, "unit": "µM"},
      {"measurement": "IC50", "setting": "[2]", "result": "910 ± 30", "unit": "nM"},
      {"measurement": "half-life", "setting": "[3]", "result": "> 5", "unit": "h"},
      {"measurement": "IC50", "setting": "Bacillus subtilis", "result": 16000, "unit": "nM"},
      {"measurement": "MIC", "setting": "M. tuberculosis Erdman", "result": 1.8, "unit": "µM"},
      {"measurement": "Tm (main transition)", "setting": "[4]; [18]", "result": 20.6, "unit": "°C"},
      {"measurement": "ΔH", "setting": "[4]; [18]", "result": 5.57, "unit": "kcal/mol"},
      {"measurement": "ΔT1/2", "setting": "[4]; [18]", "result": 2.6, "unit": "°C"},
      {"measurement": "Decrease of Tm compared to DMPC without inhibitor", "setting": "[4]; heating", "result": "3–4 °C"},
      {"measurement": "viability at 20 µM", "setting": "in vitro [5]", "result": 97, "unit": "%"},
      {"measurement": "MIC", "setting": "M. tuberculosis H37Rv", "result": 1.8, "unit": "µM"},
      {"measurement": "IC50", "setting": "[6]; Plasmodium falciparum, read-out: PfABS IC50 (μM ± S.E.), asexual blood stages", "result": 1.6, "unit": "µM"},
      {"measurement": "IC50", "setting": "[6]; read-out: PfABS IC50 (μM ± S.E.), asexual blood stages", "result": "1.58 ± 0.2", "unit": "µM"},
      {"measurement": "CC50", "setting": "in vitro [7]", "result": "4100 ± 200", "unit": "nM"},
      {"measurement": "IC50", "setting": "E. coli", "result": 15000, "unit": "nM"},
      {"measurement": "MIC", "setting": "[8]", "result": 22, "unit": "µM"},
      {"measurement": "IC50", "setting": "[9]", "result": "740 ± 40", "unit": "nM"},
      {"measurement": "half-life", "setting": "[10]", "result": 5, "unit": "h"},
      {"measurement": "Resistance of A309P MmpL3 mutant", "setting": "[11]", "result": "not resistant"},
      {"measurement": "half-life", "setting": "[12]", "result": "> 5", "unit": "h"},
      {"measurement": "IC50", "setting": "[13]", "result": "2000 ± 100", "unit": "nM"},
      {"measurement": "Tm (main transition)", "setting": "[14]; [18]", "result": 50.4, "unit": "°C"},
      {"measurement": "ΔH", "setting": "[14]; [18]", "result": 12.9, "unit": "kcal/mol"},
      {"measurement": "ΔT1/2", "setting": "[14]; [18]", "result": 2.1, "unit": "°C"},
      {"measurement": "Broadening of main transition peak ΔΤ1/2 compared to pure DSPG", "setting": "[14]; heating", "result": "0.2–1.6 °C"},
      {"measurement": "Decrease of Tm compared to DSPG alone", "setting": "[14]; heating", "result": "3–4 °C"},
      {"measurement": "MIC", "setting": "[15]; read-out: MIC against M. abscessus", "result": "22 to 44", "unit": "µM"},
      {"measurement": "MIC", "setting": "[15]; read-out: Ma(S) MIC", "result": 44, "unit": "µM"},
      {"measurement": "IC50", "setting": "[16]; Leishmania mexicana, read-out: L. mexicana IC50, promastigotes", "result": 500, "unit": "nM"},
      {"measurement": "IC50", "setting": "[16]; read-out: L. mexicana IC50, promastigotes", "result": "730 ± 200", "unit": "nM"},
      {"measurement": "IC50", "setting": "M. smegmatis", "result": "~2400", "unit": "nM"},
      {"measurement": "IC50", "setting": "[17]", "result": "6800 ± 2000", "unit": "nM"}
    ]}
  ]
}
